The values that follow come from patent publication US20160010138A1, “RAPID DETERMINATION OF MICROBIAL DROWTH AND ANTIMICROBIAL SUSEPTABILITY” (priority 2013, published 2016).

Like-named read-outs stand apart in the source and are kept apart here.

Test [1] has as its system Acinetobacter spp. (ABCC). Put plainly: MADM system resistance phenotype tests on respiratory specimens. The test is classed as cell-based, Acinetobacter sp. Here is the method:
(§1) These specimens were prepped for introduction into the MADM system. The system performed quantitative ID for Staphylococcus aureus (STAU), Pseudomonas aeruginosa (PSAE), and Acinetobacter spp. (ABCC). Concurrent quantitative culture was performed on specimens. The MADM system performed resistance phenotype tests on STAU-containing specimens for cefoxitin (FOX) MRSA phenotyping and clindamycin (CLI) resistance. The system tested ABCC- and PSAE-containing specimens for amikacin (AN) and imipenem (IMP) resistance.
(§2) Specimen preparation used a brief procedure to release bacteria, reduce imaging background, and suspend bacteria in a low ionic strength buffer. […] The remaining 62 specimens were tested using the MADM system.
(§3) 20 μL samples of prepared specimen were pipetted into independent flowcell channels and a low-voltage electrical field was applied for 5 minutes. The electrical field concentrated bacteria onto a functional surface coating that immobilized the bacteria on the lower flowcell surface. Each flowcell channel received only one type of test reagent solution that contained a selective agent if required (only for channels used to test AB, sulbactam 32 μg/mL).
(§4) The instrument acquired images at 10-minutes intervals for 180 minutes, using 10 fields of view in each flowcell channel through a 20× objective. Imaging used darkfield illumination. Identification variables included response to selective agents (AB with sulbactam), cell morphology, growth morphology, and growth rate.
(§5) Identification algorithms applied to each individual immobilized bacterial cell. The system measured the amount of change in mass over time to compute growth rates. Identification consisted of computing and combining probability scores for morphology, response to selective media, and growth rates to produce a receiver operating characteristic curve (ROC) to derive classification criteria.

Test [2] deals with Steno. The experiment in a line: MADM (BACcel) phenotype/sensitivity by growth analysis, surveillance mini-BAL. The test is classed as cell-based, S. maltophilia. The procedure: (§6) Adult MICU patients with identified surrogate were included within 72 hours of intubation and if anticipated to require MV for >48 h. Moribund state or pregnancy were exclusions. Surveillance mini-BAL (Combicath, Plastimed) was performed on Day 1, 3, 5, 7 and 10 of MV. Samples were split and processed for both a) routine respiratory quantitative microbiological culture and sensitivity assays (>48 h result availability) and b) rapid (<8 hour) flowcell/surface-capture assays using the MADM system. Viable microorganisms were identified using growth analysis enhanced by a focused VAP antibody panel (S. aureus, P. aeruginosa, A. baumannii). Untypable organisms were also reported. Sensitivity was assessed using growth analysis. Attending physicians were blinded to MADM system results.
(§7) BAL sample were prepared, removing debris and separating microorganisms from other sample material. Sample microorganisms were introduced into a multichannel fluidic cassette as described elsewhere herein. Bacteria were concentrated and retained on the lower surface of all flowcells using low-voltage electrical field (5 min) Antibody labeling of bacteria in flowcells was used to aid identification.
(§8) The automated digital microscopy system was used to perform darkfield imaging of 10 fields of view every 10 minutes for 180 minutes in each flowcell channel. Initial epifluorescence imaging was also performed for antibody detection. […] Identification consisted of probability scores based on microorganism morphology and growth rates. Antibody labeling identification data was also incorporated. Observed microorganisms were then classified as STAU, PSAE, or non-target. Antibiotic responses were used to aid identification when appropriate. Quantitation was performed by counting identified microorganisms and computing original specimen CFU/mL.

In test [3] the test system is Pseudomonas aeruginosa (PSAE). The test is classed as cell-based. The conditions noted are these: ID PSAE, culture result.
Description: A total of 281 de-identified remnant respiratory specimens were collected from hospital and commercial sources. The specimens included 25 endotracheal aspirates (ETA) of unknown age obtained from a specimen vendor. Also included were 230 mini-bronchoalveolar lavage (mini-BAL) and 26 ETA specimens obtained from Denver Health Medical Center (DHMC). DHMC specimens were 7-21 days old. AST results were available for all mini-BAL specimens but not for ETA. Accompanying reports also included semi-quantitative ID used to select 92 bacteria-positive specimens for analysis using the MADM system. Targets included Pseudomonas aeruginosa, Acinetobacter baumannii complex, and Staphylococcus aureus. Controls used standard culturing methods (Cx).
as §1

Test [4] has as its system Pseudomonas aeruginosa (PSAE). The experiment in a line: MADM system resistance phenotype tests on respiratory specimens. The test is classed as cell-based. The conditions noted are these: for resistance phenotype result (S/R), MADM: ID PSAE. Here is the method: as §1, §2, §3, §4, §5
Test [5] has as its system Staphylococcus aureus (STAU). The description is as above. The test is classed as cell-based. To be noted: ID STAU, MRSA by FOX. The procedure: (§9) (ABCC). Concurrent quantitative culture was performed on specimens.
Specimen preparation used a brief procedure to release bacteria, reduce imaging background, and suspend bacteria in a low ionic strength buffer. […] We rejected 10 samples with heavy interfering background when dilution to OD600=0.3 yielded organism counts inadequate for analysis. We rejected 7 samples for other technical deficiencies. The remaining 62 specimens were tested using the MADM system.
as §3, §4, §5

For test [6], the system named is Staphylococcus aureus (STAU). Put plainly: Culture (Cx) / hospital AST comparator on respiratory specimens. As to resistance phenotype result (S/R), Cx: key: S: susceptible; R: resistant. The test is classed as cell-based. The conditions noted are these: for resistance phenotype result (S/R), Cx: ID STAU, culture result, MRSA by oxacillin. Here is the method: DHMC specimens were 7-21 days old. […] Controls used standard culturing methods (Cx).
as §9

Test [7] concerns STAU. Put plainly: MADM (BACcel) phenotype/sensitivity by growth analysis, surveillance mini-BAL. The test is classed as cell-based, S. aureus. The procedure: as §6, §7, §8
For test [8], the system named is Klebsiella pneumoniae (KP) clinical isolates. Put plainly: KPC assay: growth in ertapenem with and without boronic acid inhibitor (MADM). The test is classed as cell-based.
Description: The bottom surface was coated with poly-L-lysine to immobilize live bacteria.
Clinical isolates of Pseudomonas aeruginosa (PA), Acinetobacter baumannii (AB), and Klebsiella pneumoniae (KP) were tested. […] Test results are expressed as nonsusceptible (NS) or susceptible (S).
Isolates were grown on blood agar, suspended colonies in tryptic soy broth for 2 hours, then centrifuged and resuspended log-phase bacteria in low ionic strength electrokinetic buffer.
MADM system analysis was performed using a 32-channel disposable fluidic cassette (FIG. 4A) to measure growth of immobilized bacteria. […] Klebsiella pneumoniae (KP) clinical isolates were tested for ertapenem (ETP) nonsusceptibility at 16 μg/mL with and without the inhibitors aminophenyl boronic acid (APB) at 300 μg/mL or benzo(b)thiophene-2-boronic acid (BTB) at 50 μg/mL to identify putative KPC-positive strains.
10 μL aliquots of 5E+7 CFU/mL were pipetted into separate flowcells for each isolate and test condition. Microorganisms were electrokinetically concentrated onto the flowcell detection surface with an electrical field to the positively charged lower surface to immobilize cells and yield 10-100 bacteria per field of view (FIG. 4B). […] The system measured growth at 10-minute intervals. […] Growth was evaluated, interpreting results for PA, AB, and KP-ETP as NS if growth had not arrested within 3 hours. […]
Test [9] has as its system heat-killed cells and isopropyl alcohol killed cells. The experiment in a line: Esterase activity indicator fluorescence in killed cells (MADM system). The test is classed as cell-based. The text has this:
Physiologic indicators of active bacteria include indicators of growth, responsiveness to external stimulus, transcription, translation, energy dependent activity, enzyme activity, and an intact permeability barrier. The indicators tested experimentally were grouped according to the following functional categories of physiologic states to which they are responsive, which included indicators of respiratory and metabolic activity, and membrane integrity.
Carboxyfluorescein diacetate/carboxyfluorescein diacetate succinimidyl ester (CFDA/CFDA-SE; Molecular Probes) compounds are converted into amine-reactive fluorescent molecules when cleaved by esterases present within active cells. When CFDA-SE is taken up by live cells, the fluorescent molecule produced by esterase cleavage and amine reaction is retained inside the cell. […] The product formed by uptake and processing of CFDA, on the other hand, should be more “leaky” over time and may exit a dead cell. […] Shorter delay times have not yet been investigated but may be compatible with avoiding false positive results while providing a shorter assay period.

Setting [10] is: dyes added immediately after heat or isopropyl alcohol treatment.

Regarding `NCC[C@H](O)C(=O)N[C@@H]1C[C@H](N)[C@@H](O[C@H]2O[C@H](CN)[C@@H](O)[C@H](O)[C@H]2O)[C@H](O)[C@H]1O[C@H]1O[C@H](CO)[C@@H](O)[C@H](N)[C@H]1O` [AN, amikacin], the “resistance phenotype result (S/R), MADM” value in [1] (ABCC-positive specimen (specimen name not given)) is reported as “S”; in test [4] (specimen DH 430, Mini-BAL), “S”; in test [4] (specimen DH 554, BAL) it was “S”; in [4] (specimen DH 641, Mini-BAL), “S”. For the same compound, in test [1] (all ABCC-containing respiratory specimens), the “susceptibility of all ABCC” value is reported as “susceptible”. Also, the “Phenotype, sensitivity (growth in antibiotic)” value is “growth, TZP-” in test [2] (Spec# 006-D1, BACcel ID Steno, 7.68 × 10^5 CFU/ml) and “growth, TZP-” in test [2] (Spec# 006-D3, BACcel ID Steno, 1.60 × 10^4 CFU/ml). The “resistance phenotype result (S/R), Cx” value is “S” in test [3] (specimen DH 430, Mini-BAL); “S” in test [3] (specimen DH 554, BAL); “S” in test [3] (specimen DH 641, Mini-BAL). Moreover, the “susceptibility of all PSAE” value in test [4] (all PSAE-containing respiratory specimens) is recorded as “susceptible”.

Consider `CCC[C@@H]1C[C@@H](C(=O)N[C@@H]([C@H]2O[C@H](SC)[C@H](O)[C@@H](O)[C@H]2O)[C@H](C)Cl)N(C)C1` [CLI, clindamycin], for which the “resistance phenotype result (S/R), MADM” value in test [5] (specimen DH 425, Mini-BAL) is “S”; in test [5] (specimen DH 427, Mini-BAL), “S”; in [5] (specimen DH 439, Mini-BAL), “S”; in test [5] (specimen DH 440, BAL), “S”; in test [5] (specimen DH 457, BAL), “S”; in test [5] (specimen DH 485, BAL) it was “S”. Further, the “resistance phenotype result (S/R), MADM” value is listed as “S” in [5] (specimen DH 509, BAL); “S” in test [5] (specimen DH 514, Mini-BAL); “S” in [5] (specimen DH 543, BAL); “S” in [5] (specimen DH 550, BAL); “S” in test [5] (specimen DH 556, Mini-BAL); “S” in test [5] (specimen T12, ETA). For the same compound, the “resistance phenotype result (S/R), Cx” value is on record as “S” in test [6] (specimen DH 425, Mini-BAL); “S” in test [6] (specimen DH 427, Mini-BAL); “S” in test [6] (specimen DH 439, Mini-BAL); “S” in [6] (specimen DH 440, BAL); “S” in test [6] (specimen DH 457, BAL); “S” in test [6] (specimen DH 485, BAL). For the same compound, the “resistance phenotype result (S/R), Cx” value in [6] (specimen DH 509, BAL) was “S”; in test [6] (specimen DH 514, Mini-BAL) it was “S”; in test [6] (specimen DH 543, BAL), “S”; in test [6] (specimen DH 550, BAL), “S”; in test [6] (specimen DH 556, Mini-BAL), “S”; in test [6] (specimen T12, ETA), “S”. Further, the “Phenotype, sensitivity” value is reported as “(MRSA) CLI-R” in test [7] (Spec# 008-D7, BACcel ID STAU, 1.11 × 10^6 CFU/ml) and “MRSA, CLI-R” in [7] (Spec# 033-D7, BACcel ID STAU, 6.64 × 10^4 CFU/ml).

As to `C[C@@H](O)[C@H]1C(=O)N2C(C(=O)O)=C(S[C@@H]3CN[C@H](C(=O)Nc4cccc(C(=O)O)c4)C3)[C@H](C)[C@H]12` [ETP, ertapenem], in test [8] (ETP at 16 μg/mL (FIG. 21)), the “growth of susceptible (KPC-negative) strains” value is given as “fail to grow”. Moreover, the “growth morphology during drug exposure” value in test [8] (KPC clinical isolate, ETP 16 μg/mL, 20 and 90 min of exposure (FIG. 20)) is on record as “abnormal growth morphology”.

Consider `Cc1onc(-c2ccccc2)c1C(=O)N[C@@H]1C(=O)N2[C@@H]1SC(C)(C)[C@@H]2C(=O)O` [OXA, oxacillin], for which the “resistance phenotype result (S/R), Cx” value in [6] (specimen DH 425, Mini-BAL) is recorded as “S”; in test [6] (specimen DH 427, Mini-BAL), “S”; in [6] (specimen DH 439, Mini-BAL), “R”; in test [6] (specimen DH 440, BAL), “S”; in [6] (specimen DH 457, BAL), “S”; in test [6] (specimen DH 485, BAL) it was “S”. Also, the “resistance phenotype result (S/R), Cx” value in test [6] (specimen DH 509, BAL) is recorded as “S”; in [6] (specimen DH 514, Mini-BAL) it was “S”; in test [6] (specimen DH 543, BAL), “S”; in test [6] (specimen DH 550, BAL), “S”; in test [6] (specimen DH 556, Mini-BAL), “S”; in test [6] (specimen T12, ETA), “R”. Besides, in test [6] (the one discordant STAU sample), the “MRSA/MSSA call by oxacillin MIC (hospital AST)” value is “MSSA”.

With Carboxyfluorescein diacetate [CFDA], the “fluorescence of killed cells” value in test [9] (setting [10]) is given as “demonstrated fluorescence”.

Take “carboxyfluorescein diacetate succinimidyl ester [CFDA-SE]”: the “fluorescence of killed cells” value in test [9] (setting [10]) is reported as “demonstrated fluorescence”; in [9] (two hour post-heat-kill delay) it was “no fluorescence was observed”.
